ChEMBL document CHEMBL3286232, “The enone motif of (+)-grandifloracin is not essential for 'anti-austerity' antiproliferative activity” (Bioorg Med Chem Lett, 2014)

How the values were obtained:
[1] = Anti-austerity antiproliferative activity against nutrient-deprived human PANC1 cells after 72 hrs in presence of 0.5% serum; format: functional, cell-based; details: PANC-1, 72 h
[2] = Anti-austerity antiproliferative activity against human PANC1 cells after 72 hrs in presence of 10 % serum; format: cell-based; details: PANC-1, 72 h
HT-29 [3] = assay: Anti-austerity antiproliferative activity against nutrient-deprived human HT-29 cells after 72 hrs in presence of 0.5% serum; format: functional, cell-based; details: HT-29, 72 h
HT-29 [4] = assay: Anti-austerity antiproliferative activity against human HT-29 cells after 72 hrs in presence of 10 % serum; format: cell-based; details: HT-29, 72 h

IC50 (HT-29 [3])	IC50 (HT-29 [4])	Structure (SMILES)	IC50 [1]	IC50 [2]
27 µM	39 µM	O=C(OC[C@@]1(O)C(=O)CC[C@H]2[C@@H]1[C@H]1CC[C@@H]2C(=O)[C@]1(O)COC(=O)c1ccccc1)c1ccccc1	86 µM	81 µM
> 500 µM	109 µM	O=C(OC[C@@]1(O)C(=O)C=C[C@H]2[C@@H]1[C@H]1C=C[C@@H]2C(=O)[C@]1(O)COC(=O)c1ccccc1)c1ccccc1	> 500 µM	123 µM
18 µM	39 µM	O=C(OC[C@@]1(O)C(=O)C=C[C@H]2[C@@H]1[C@H]1C=C[C@@H]2C(=O)[C@]1(O)COC(=O)c1ccc(Cl)cc1)c1ccc(Cl)cc1	77 µM	84 µM
22 µM	35 µM	COc1ccc(C(=O)OC[C@@]2(O)C(=O)C=C[C@H]3[C@@H]2[C@H]2C=C[C@@H]3C(=O)[C@]2(O)COC(=O)c2ccc(OC)cc2)cc1	52 µM	78 µM
